Our source for the melting point, viability and IC50 values is publication PMC8510344, “Bile-Acid-Appended Triazolyl Aryl Ketones: Design, Synthesis, In Vitro Anticancer Activity and Pharmacokinetics in Rats” (Molecules, 2021).

A value given as a limit tells only on which side of the number the result lay.

The test system of data set [1] is MCF-7 (human breast adenocarcinoma) cells. Nature of the data set: MTT cytotoxicity assay, MCF-7. In kind it is cell-based. As to conditions: for viability at 10 µM: MCF7, 10 µM, 48 h exposure, read-out: % Cell Viability at 10 µM MCF-7; for IC50: 48 h. Here is the method: (§1) The cytotoxicity activity of all the conjugates (6aa–6df) was evaluated in vitro by MTT assay against two different breast cancer cell lines 4T1 (murine) and MCF-7 (human) and HEK 293 (human) as normal cell line. DTX was used as positive control. Cells were grown in DMEM supplemented with 10% FBS and 1% antibiotic solution and incubated at 5% CO2 and 37 °C for 24 h. The stock solutions of all the conjugates were prepared in DMSO and diluted for further use. Briefly, 5 × 10^3 cells/well were seeded in 96-well cell culture plates and allowed to adhere for 24 h. Cell inhibition (%) was determined after 48 h exposure to the compounds at 1–25 μM concentration. After 48 h, MTT assay was performed and the yellow tetrazolium salt (MTT) was reduced in metabolically active cells to form insoluble purple formazan crystals, which were solubilized by the addition of DMSO. The optical density (OD) was recorded at 560 nm and 630 nm as reference wavelength. Percentage cell inhibition was determined by comparison with untreated cells.
For orientation: Tetrazolium assays rely on reduction of a dye to a coloured formazan, in cell work by metabolically active cells.

The subject of data set [2] is 4T1 (mouse mammary carcinoma) cells. Nature of the data set: MTT cytotoxicity assay, 4T1. In kind it is cell-based. As to conditions: for viability at 10 µM: 48 h exposure, read-out: % Cell Viability at 10 µM 4T1; for IC50: 48 h. Here is the method:
as §1

Data set [3] can be described thus: MTT cytotoxicity assay, normal cell line HEK 293. As to conditions: human, HEK 293 cells, HEK 293 normal cells, 48 h exposure. The format is cell-based. Here is the method:
as §1

Compound `C[C@H](CCC(=O)OCc1cn(CC(=O)c2ccccc2)nn1)C1CCC2C3C(C[C@H](O)[C@@]21C)[C@@]1(C)CC[C@@H](O)CC1C[C@H]3O` (stereo partly drawn) [6aa, (1-(2-Oxo-2-phenylethyl)-1H-1,2,3-triazol-4-yl)methyl (4R)-4-((3R,7R,10S,12S,13R)-3,7,12-trihydroxy-10,13-dimethylhexadecahydro-1H-cyclopenta[a]phenanthren-17-yl)pentanoate] registered a melting point of 108 to 109 °C. In data set [1] (Homo sapiens), the viability at 10 µM was found to be 77.3%. Further, the viability at 10 µM in data set [2] (Mus musculus) amounted to 74.3%. The compound further came in with a viability at 48 h, 10 µM in data set [3] of 86.1%.
With `Cc1ccc(C(=O)Cn2cc(COC(=O)CC[C@@H](C)C3CCC4C5C(C[C@H](O)[C@@]43C)[C@@]3(C)CC[C@@H](O)CC3C[C@H]5O)nn2)cc1` (stereo partly drawn) [6ab, (1-(2-Oxo-2-(p-tolyl)ethyl)-1H-1,2,3-triazol-4-yl)methyl (4R)-4-((3R,7R,10S,12S,13R)-3,7,12-trihydroxy-10,13-dimethylhexadecahydro-1H-cyclopenta[a]phenanthren-17-yl)pentanoate], the viability at 10 µM in data set [1] (Homo sapiens) came to 57.4%; in data set [2] (Mus musculus) it was 72.9%. The viability at 48 h, 10 µM in data set [3] is 87.6%.
In turn, `COc1ccc(C(=O)Cn2cc(COC(=O)CC[C@@H](C)C3CCC4C5C(C[C@H](O)[C@@]43C)[C@@]3(C)CC[C@@H](O)CC3C[C@H]5O)nn2)cc1` (stereo partly drawn) [6ac, (1-(2-(4-Methoxyphenyl)-2-oxoethyl)-1H-1,2,3-triazol-4-yl)methyl (4R)-4-((3R,7R,10S,12S,13R)-3,7,12-trihydroxy-10,13-dimethylhexadecahydro-1H-cyclopenta[a]phenanthren-17-yl)pentanoate] came in with a melting point of 176 to 177 °C. Moreover, in data set [1] (Homo sapiens), the viability at 10 µM worked out at 55.6%. In data set [2] (Mus musculus), the viability at 10 µM turned out to be 80%. Further, the viability at 48 h, 10 µM in data set [3] is 87.9%.
On the same counts, the results for `C[C@H](CCC(=O)OCc1cn(CC(=O)c2ccc(F)cc2)nn1)C1CCC2C3C(C[C@H](O)[C@@]21C)[C@@]1(C)CC[C@@H](O)CC1C[C@H]3O` (stereo partly drawn) [6ad, (1-(2-(4-Fluorophenyl)-2-oxoethyl)-1H-1,2,3-triazol-4-yl)methyl (4R)-4-((3R,7R,10S,12S,13R)-3,7,12-trihydroxy-10,13-dimethylhexadecahydro-1H-cyclopenta[a]phenanthren-17-yl)pentanoate] are 152 to 153 °C, 66.5%, 47.7% and 86.8%.
`C[C@H](CCC(=O)OCc1cn(CC(=O)c2ccc(Cl)cc2)nn1)C1CCC2C3C(C[C@H](O)[C@@]21C)[C@@]1(C)CC[C@@H](O)CC1C[C@H]3O` (stereo partly drawn) [6ae, (1-(2-(4-Chlorophenyl)-2-oxoethyl)-1H-1,2,3-triazol-4-yl)methyl (4R)-4-((3R,7R,10S,12S,13R)-3,7,12-trihydroxy-10,13-dimethylhexadecahydro-1H-cyclopenta[a]phenanthren-17-yl)pentanoate] had a melting point of 153 to 154 °C. In data set [1] (Homo sapiens), the viability at 10 µM was determined as 79.6%. The viability at 10 µM in data set [2] (Mus musculus) was found to be 58.9%. In data set [3], this compound registered a viability at 48 h, 10 µM of 96.2%.
The compound `C[C@H](CCC(=O)OCc1cn(CC(=O)c2ccccc2)nn1)C1CCC2C3CCC4C[C@H](O)CC[C@]4(C)C3C[C@H](O)[C@@]21C` (stereo partly drawn) [6ba, (1-(2-Oxo-2-phenylethyl)-1H-1,2,3-triazol-4-yl)methyl (4R)-4-((3R,10S,12S,13R)-3,12-dihydroxy-10,13-dimethylhexadecahydro-1H-cyclopenta[a]phenanthren-17-yl)pentanoate] returned a melting point of 143 to 144 °C. In addition, the viability at 10 µM in data set [1] (Homo sapiens) worked out at 91.9%. For the same compound, the viability at 10 µM in data set [2] (Mus musculus) came out at 97.8%. The same compound displayed a viability at 48 h, 10 µM in data set [3] of 88.9%.
The compound `Cc1ccc(C(=O)Cn2cc(COC(=O)CC[C@@H](C)C3CCC4C5CCC6C[C@H](O)CC[C@]6(C)C5C[C@H](O)[C@@]43C)nn2)cc1` (stereo partly drawn) [6bb, (1-(2-Oxo-2-(p-tolyl)ethyl)-1H-1,2,3-triazol-4-yl)methyl (4R)-4-((3R,10S,12S,13R)-3,12-dihydroxy-10,13-dimethylhexadecahydro-1H-cyclopenta[a]phenanthren-17-yl)pentanoate] returned a melting point of 123 to 125 °C. Besides, the viability at 10 µM in data set [1] (Homo sapiens) worked out at 67.6%. Also, the viability at 10 µM in data set [2] (Mus musculus) amounted to 85.7%. In data set [3], the viability at 48 h, 10 µM was found to be 89.2%.
`COc1ccc(C(=O)Cn2cc(COC(=O)CC[C@@H](C)C3CCC4C5CCC6C[C@H](O)CC[C@]6(C)C5C[C@H](O)[C@@]43C)nn2)cc1` (stereo partly drawn) [6bc, (1-(2-(4-Methoxyphenyl)-2-oxoethyl)-1H-1,2,3-triazol-4-yl)methyl (4R)-4-((3R,10S,12S,13R)-3,12-dihydroxy-10,13-dimethylhexadecahydro-1H-cyclopenta[a]phenanthren-17-yl)pentanoate]: the melting point lay within 144 to 145 °C. Besides, the viability at 10 µM in data set [1] (Homo sapiens) is 69.6%. Also, in data set [2] (Mus musculus), the viability at 10 µM worked out at 68.4%. Moreover, in data set [3], the viability at 48 h, 10 µM came to 90.8%.
On the same counts, the results for `C[C@H](CCC(=O)OCc1cn(CC(=O)c2ccc(F)cc2)nn1)C1CCC2C3CCC4C[C@H](O)CC[C@]4(C)C3C[C@H](O)[C@@]21C` (stereo partly drawn) [6bd, (1-(2-(4-Fluorophenyl)-2-oxoethyl)-1H-1,2,3-triazol-4-yl)methyl (4R)-4-((3R,10S,12S,13R)-3,12-dihydroxy-10,13-dimethylhexadecahydro-1H-cyclopenta[a]phenanthren-17-yl)pentanoate] are 127 to 128 °C, 79.6%, 52.4% and 89.4%.
Turning to `C[C@H](CCC(=O)OCc1cn(CC(=O)c2ccc(Cl)cc2)nn1)C1CCC2C3CCC4C[C@H](O)CC[C@]4(C)C3C[C@H](O)[C@@]21C` (stereo partly drawn) [6be, (1-(2-(4-Chlorophenyl)-2-oxoethyl)-1H-1,2,3-triazol-4-yl)methyl (4R)-4-((3R,10S,12S,13R)-3,12-dihydroxy-10,13-dimethylhexadecahydro-1H-cyclopenta[a]phenanthren-17-yl)pentanoate], the melting point is 92 to 93 °C. The viability at 10 µM in data set [1] (Homo sapiens) is 68.5%. Further, the viability at 10 µM in data set [2] (Mus musculus) worked out at 76%. The viability at 48 h, 10 µM in data set [3] was 88.4%.
In turn, `C[C@H](CCC(=O)OCc1cn(CC(=O)c2ccc(Br)cc2)nn1)C1CCC2C3CCC4C[C@H](O)CC[C@]4(C)C3C[C@H](O)[C@@]21C` (stereo partly drawn) [6bf, (1-(2-(4-Bromophenyl)-2-oxoethyl)-1H-1,2,3-triazol-4-yl)methyl (4R)-4-((3R,10S,12S,13R)-3,12-dihydroxy-10,13-dimethylhexadecahydro-1H-cyclopenta[a]phenanthren-17-yl)pentanoate] yielded a melting point of 176 to 177 °C. This compound had an IC50 in data set [1] of 18.3 ± 1.48 µM. Further, in data set [1] (Homo sapiens), the viability at 10 µM was found to be 44.4%. Also, the IC50 in data set [1] (Homo sapiens, MCF7, 48 h) was under 19 µM. This compound yielded an IC50 in data set [2] of 9.68 ± 1.59 µM. For the same compound, in data set [2] (Mus musculus), the viability at 10 µM was determined as 60.9% and the IC50 was under 19 µM. Besides, the viability at 48 h, 10 µM in data set [3] came out at 86.8%.
Take `C[C@H](CCC(=O)NCc1cn(CC(=O)c2ccccc2)nn1)C1CCC2C3C(C[C@H](O)[C@@]21C)[C@@]1(C)CC[C@@H](O)CC1C[C@H]3O` (stereo partly drawn) [6ca, (4R)-N-((1-(2-Oxo-2-phenylethyl)-1H-1,2,3-triazol-4-yl)methyl)-4-((3R,7R,10S,12S,13R)-3,7,12-trihydroxy-10,13-dimethylhexadecahydro-1H-cyclopenta[a]phenanthren-17-yl)pentanamide]: the melting point was 148 to 149 °C. For the same compound, the viability at 10 µM in data set [1] (Homo sapiens) stood at 92.1%. The viability at 10 µM in data set [2] (Mus musculus) is 85.2%. Besides, in data set [3], the viability at 48 h, 10 µM was 90.1%.
Regarding `Cc1ccc(C(=O)Cn2cc(CNC(=O)CC[C@@H](C)C3CCC4C5C(C[C@H](O)[C@@]43C)[C@@]3(C)CC[C@@H](O)CC3C[C@H]5O)nn2)cc1` (stereo partly drawn) [6cb, (4R)-N-((1-(2-Oxo-2-(p-tolyl)ethyl)-1H-1,2,3-triazol-4-yl)methyl)-4-((3R,7R,10S,12S,13R)-3,7,12-trihydroxy-10,13-dimethylhexadecahydro-1H-cyclopenta[a]phenanthren-17-yl)pentanamide], the melting point lay in the range of 129 to 131 °C. In addition, in data set [1] (Homo sapiens), the viability at 10 µM is 61.9%. Besides, in data set [2] (Mus musculus), the viability at 10 µM came to 96.7%. In data set [3], this compound came in with a viability at 48 h, 10 µM of 86%.
On to `COc1ccc(C(=O)Cn2cc(CNC(=O)CC[C@@H](C)C3CCC4C5C(C[C@H](O)[C@@]43C)[C@@]3(C)CC[C@@H](O)CC3C[C@H]5O)nn2)cc1` (stereo partly drawn) [6cc, (4R)-N-((1-(2-(4-Methoxyphenyl)-2-oxoethyl)-1H-1,2,3-triazol-4-yl)methyl)-4-((3R,7R,10S,12S,13R)-3,7,12-trihydroxy-10,13-dimethylhexadecahydro-1H-cyclopenta[a]phenanthren-17-yl)pentanamide], for which the results for the viability at 10 µM in data set [1] (Homo sapiens) and in data set [2] (Mus musculus) were 95.4% and 56.8%, respectively. Moreover, in data set [3], the viability at 48 h, 10 µM came to 96.8%.
Consider `CC(=O)O[C@@]12CO[C@@H]1C[C@H](O)[C@@]1(C)C(=O)[C@H](O)C3=C(C)[C@@H](OC(=O)[C@H](O)[C@@H](NC(=O)OC(C)(C)C)c4ccccc4)C[C@@](O)([C@@H](OC(=O)c4ccccc4)[C@H]21)C3(C)C` [DTX, Docetaxel, reference compound], for which the viability at 10 µM in data set [1] (Homo sapiens) is 46.5%; in data set [2] (Mus musculus), 56.9%. For the same compound, the IC50 is 9.46 ± 0.98 µM in data set [1] (Homo sapiens, MCF7, 48 h) and 13.8 ± 1.07 µM in data set [2] (Mus musculus).

Broadly, the melting point is the temperature of the solid-liquid transition. In general, viability refers to a per cent measure of how many cells are alive, often set against a control. As a reminder, the IC50 is the concentration that gives 50% inhibition.
